Measurements: ChEMBL document CHEMBL1201862, “PubChem BioAssay data set” (2004)
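Compound exposure: 48 hours, 5 concentrations, 96-well plates. GI50: concentration for 50% inhibition of growth.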 Active and inactive are the calls of the source. Cut-off read from the data, not from the text of the source: active = GI50 up to about 1.1 µM and inactive = higher.

Tests used:
Assay in all cases: DTP human tumour cell line panel, 48 h
[1] = tested on: MDA-N
[2] = tested on: SR
[3] = tested on: PC-3
[4] = tested on: SK-MEL-5
[5] = tested on: M14
[6] = tested on: UACC-62
[7] = tested on: SN12C
[8] = tested on: SNB-75
[9] = tested on: OVCAR-4
[10] = tested on: OVCAR-8
[11] = tested on: SF-295
[12] = tested on: EKVX
[13] = tested on: IGROV-1
[14] = tested on: U-251
[15] = tested on: OVCAR-3
[16] = tested on: MDA-MB-435
[17] = tested on: HCT-116
[18] = tested on: HOP-62
[19] = tested on: SF-268
[20] = tested on: SF-539
[21] = tested on: RPMI-8226
[22] = tested on: SW-620
[23] = tested on: K562
[24] = tested on: HT-29
[25] = tested on: NCI-H522
[26] = tested on: NCI-H460
[27] = tested on: HOP-92
[28] = tested on: SK-MEL-2
[29] = tested on: BT-549
[30] = tested on: Hs-578T
[31] = tested on: MCF7
[32] = tested on: SNB-19
[33] = tested on: UO-31
[34] = tested on: ACHN
[35] = tested on: MDA-MB-231
[36] = tested on: T47D
[37] = tested on: OVCAR-5
[38] = tested on: SK-MEL-28
[39] = tested on: NCI/ADR-RES
[40] = tested on: SK-OV-3
[41] = tested on: KM12
[42] = tested on: NCI-H226
[43] = tested on: TK-10
[44] = tested on: CAKI-1
[45] = tested on: A498
[46] = tested on: COLO 205
[47] = tested on: HCC 2998
[48] = tested on: UACC-257
[49] = tested on: A549
[50] = tested on: Malme-3M
[51] = tested on: NCI-H23
[52] = tested on: DU-145
[53] = tested on: HCT-15
[54] = tested on: 786-0
[55] = tested on: RXF 393
[56] = tested on: HL-60
[57] = tested on: LOX IMVI
[58] = tested on: CCRF-CEM
[59] = tested on: MOLT-4
[60] = tested on: KM-20L2
[61] = tested on: DMS-114
[62] = tested on: LXFL 529
[63] = tested on: M19-MEL
[64] = tested on: SNB-78
[65] = tested on: DMS-273

SMILES: COC(=O)C(Cc1c[nH]c2ccccc12)NC1=Nc2ccncc2S(=O)(=O)N1c1cccc(OC(C)C)c1 (stereo not given)
- GI50 [1]: 67.3 µM (inactive)
- GI50 [2]: 21.8 µM (inactive)
- GI50 [3]: 39.9 µM (inactive)
- GI50 [4]: 25.5 µM (inactive)
- GI50 [5]: 41.6 µM (inactive)
- GI50 [6]: 25.9 µM (inactive)
- GI50 [7]: 48.1 µM (inactive)
- GI50 [8]: 53.2 µM (inactive)
- GI50 [9]: 37.2 µM (inactive)
- GI50 [10]: 30.3 µM (inactive)
- GI50 [11]: 42 µM (inactive)
- GI50 [12]: 36.6 µM (inactive)
- GI50 [13]: 18.7 µM (inactive)
- GI50 [14]: 47.6 µM (inactive)
- GI50 [15]: 36 µM (inactive)
- GI50 [16]: 45.9 µM (inactive)
- GI50 [17]: 35.4 µM (inactive)
- GI50 [18]: 56.2 µM (inactive)
- GI50 [19]: 41.9 µM (inactive)
- GI50 [20]: 80.5 µM (inactive)
- GI50 [21]: 15.5 µM (inactive)
- GI50 [22]: 92.5 µM (inactive)
- GI50 [23]: 41.8 µM (inactive)
- GI50 [24]: 34.2 µM (inactive)
- GI50 [25]: 21.4 µM (inactive)
- GI50 [26]: 27.7 µM (inactive)
- GI50 [27]: 3.94 µM (inactive)
- GI50 [28]: 39.7 µM (inactive)
- GI50 [29]: 27.8 µM (inactive)
- GI50 [30]: > 100 µM (inactive)
- GI50 [31]: 24.7 µM (inactive)
- GI50 [32]: 68.1 µM (inactive)
- GI50 [33]: 45.3 µM (inactive)
- GI50 [34]: 41.1 µM (inactive)
- GI50 [35]: 49.4 µM (inactive)
- GI50 [36]: 36.1 µM (inactive)
- GI50 [37]: > 100 µM (inactive)
- GI50 [38]: > 100 µM (inactive)
- GI50 [39]: 20.9 µM (inactive)
- GI50 [40]: > 100 µM (inactive)
- GI50 [41]: 63.2 µM (inactive)
- GI50 [42]: > 100 µM (inactive)
- GI50 [43]: > 100 µM (inactive)
- GI50 [44]: 32.4 µM (inactive)
- GI50 [45]: 82 µM (inactive)
- GI50 [46]: 30.3 µM (inactive)
- GI50 [47]: 48.8 µM (inactive)
- GI50 [48]: > 100 µM (inactive)
- GI50 [49]: 29.6 µM (inactive)
- GI50 [50]: 56.1 µM (inactive)
- GI50 [51]: 20.1 µM (inactive)
- GI50 [52]: 32.8 µM (inactive)
- GI50 [53]: 43.2 µM
- GI50 [54]: 34.2 µM (inactive)
- GI50 [55]: > 100 µM (inactive)
- GI50 [56]: 22.4 µM (inactive)
- GI50 [57]: 26.4 µM (inactive)
- GI50 [58]: 20.6 µM (inactive)
- GI50 [59]: 8.91 µM (inactive)

SMILES: COc1cc2c(cc1OC)C1C(=O)c3c(O)cc4c(c3OC1CO2)C=CC(C)(C)O4 (stereo not given)
- GI50 [60]: 29.5 µM (inactive)
- GI50 [2]: > 100 µM (inactive)
- GI50 [4]: 1.17 µM (inactive)
- GI50 [5]: 23.5 µM (inactive)
- GI50 [6]: 12.9 µM (inactive)
- GI50 [7]: 27.2 µM (inactive)
- GI50 [8]: 26.7 µM (inactive)
- GI50 [13]: 19 µM (inactive)
- GI50 [14]: 12.3 µM (inactive)
- GI50 [61]: 0.366 µM (active)
- GI50 [15]: 13.5 µM (inactive)
- GI50 [17]: 10.9 µM (inactive)
- GI50 [18]: 14.8 µM (inactive)
- GI50 [19]: 27.6 µM (inactive)
- GI50 [20]: 18.2 µM (inactive)
- GI50 [22]: 23.5 µM (inactive)
- GI50 [24]: 27.8 µM (inactive)
- GI50 [25]: 1.28 µM (inactive)
- GI50 [26]: 20.8 µM (inactive)
- GI50 [27]: 18.2 µM (inactive)
- GI50 [28]: 18.8 µM (inactive)
- GI50 [62]: 7.03 µM (inactive)
- GI50 [33]: 3.01 µM (inactive)
- GI50 [63]: 13.8 µM (inactive)
- GI50 [34]: 0.748 µM (active)
- GI50 [37]: 84.1 µM (inactive)
- GI50 [38]: 35.6 µM (inactive)
- GI50 [40]: 22.3 µM (inactive)
- GI50 [41]: 9.44 µM (inactive)
- GI50 [43]: 32.8 µM (inactive)
- GI50 [44]: 21.7 µM (inactive)
- GI50 [45]: 21.6 µM (inactive)
- GI50 [64]: 31.9 µM (inactive)
- GI50 [49]: 2.25 µM (inactive)
- GI50 [50]: 20.6 µM (inactive)
- GI50 [53]: 19.1 µM
- GI50 [57]: 5.89 µM (inactive)

SMILES: O=C(CCN1CCCCC1CO)Nc1ccc2c(c1)C(=O)c1ccc(NC(=O)CCN3CCCCC3CO)cc1C2=O (stereo not given)
- GI50 [60]: 25.6 µM (inactive)
- GI50 [2]: 10.7 µM (inactive)
- GI50 [4]: 15.4 µM (inactive)
- GI50 [5]: 10.4 µM (inactive)
- GI50 [6]: 8.95 µM (inactive)
- GI50 [7]: 6.68 µM (inactive)
- GI50 [8]: 4.28 µM (inactive)
- GI50 [9]: 11.5 µM (inactive)
- GI50 [10]: 6.73 µM (inactive)
- GI50 [11]: 23.8 µM (inactive)
- GI50 [12]: 19.1 µM (inactive)
- GI50 [13]: 9.68 µM (inactive)
- GI50 [14]: 8.13 µM (inactive)
- GI50 [61]: 14.1 µM (inactive)
- GI50 [17]: 7.38 µM (inactive)
- GI50 [18]: 14.5 µM (inactive)
- GI50 [19]: 10 µM (inactive)
- GI50 [20]: 3.6 µM (inactive)
- GI50 [21]: 13.2 µM (inactive)
- GI50 [22]: 3.64 µM (inactive)
- GI50 [23]: 6.25 µM (inactive)
- GI50 [24]: 11.4 µM (inactive)
- GI50 [25]: 8.18 µM (inactive)
- GI50 [26]: 6.58 µM (inactive)
- GI50 [27]: 15.5 µM (inactive)
- GI50 [28]: 4.58 µM (inactive)
- GI50 [62]: 2.34 µM (inactive)
- GI50 [32]: 11 µM (inactive)
- GI50 [33]: 13.8 µM (inactive)
- GI50 [63]: 15.8 µM (inactive)
- GI50 [34]: 11.8 µM (inactive)
- GI50 [65]: 5.16 µM (inactive)
- GI50 [37]: 18.7 µM (inactive)
- GI50 [38]: 12.9 µM (inactive)
- GI50 [40]: 13.7 µM (inactive)
- GI50 [41]: 4.34 µM (inactive)
- GI50 [42]: 18.8 µM (inactive)
- GI50 [43]: 8.3 µM (inactive)
- GI50 [44]: 13.5 µM (inactive)
- GI50 [45]: 2.25 µM (inactive)
- GI50 [64]: 7.36 µM (inactive)
- GI50 [46]: 7.71 µM (inactive)
- GI50 [47]: 9.35 µM (inactive)
- GI50 [48]: 14.4 µM (inactive)
- GI50 [49]: 27.9 µM (inactive)
- GI50 [50]: 5.27 µM (inactive)
- GI50 [51]: 17 µM (inactive)
- GI50 [53]: 14.2 µM
- GI50 [54]: 1.98 µM (inactive)
- GI50 [55]: 2 µM (inactive)
- GI50 [56]: 10.6 µM (inactive)
- GI50 [57]: 6.93 µM (inactive)
- GI50 [58]: 3.61 µM (inactive)
- GI50 [59]: 8.39 µM (inactive)
